Source: patent US20070128217A1 (priority 2003, published 2007)

Experiments:
[1] = test system: control sera (pooled serum of ten healthy LUMC hospital workers; commercial negative donor pooled serum from the Dutch bloodbank); assay type: binding, human; set-up: Binding of Control serum LUMC to linear peptides / Binding of Control serum Blood-bank to linear peptides / Binding of Control serum LUMC to looped peptides / Binding of Control Serum Blood-Bank to Looped peptides / Binding of Control serum LUMC to linear peptides of the protein M of SARS-CoV Urbani / Binding of Control serum Blood-bank to linear peptides of the protein M of SARS-CoV Urbani / Binding of Control serum LUMC to looped peptides of the protein M of SARS-CoV Urbani / Binding of Control Serum Blood-Bank to Looped peptides of the protein M of SARS-CoV Urbani: unit not given here
[2] = test system: antibodies in sera from SARS patients (sera 1a, 1b, 2, 6, 37, 62, London, SARS-yellow, SARS-green); assay type: binding, human; set-up: Binding of serum 6 to linear peptides of protein X1 of SARS-CoV Urbani / Binding of serum 37 to linear peptides of protein X1 of SARS-CoV Urbani / Binding of serum 6 to looped/cyclic peptide (PEPSCAN-ELISA) / Binding of serum 37 to looped/cyclic peptide (PEPSCAN-ELISA) / Binding of serum 37 to looped/cyclic peptides of protein X1 of SARS-CoV Urbani / Binding of serum 6 to linear peptides of protein X2 / Binding of serum 37 to linear peptides of protein X2 / Binding of serum 37 to looped/cyclic peptides of protein X2 of SARS-CoV Urbani / Binding of serum 6 to linear peptides of protein M of SARS-CoV Urbani / Binding of serum 37 to linear peptides of protein M of SARS-CoV Urbani / Binding of serum 6 to looped/cyclic peptides of protein M of SARS-CoV Urbani / Binding of serum 37 to looped/cyclic peptides of protein M of SARS-CoV Urbani / Binding of serum 6 to linear peptides of protein X3 of SARS-CoV Urbani / Binding of serum 37 to linear peptides of protein X3 of SARS-CoV Urbani / Binding of serum 37 to looped/cyclic peptides of protein X3 of SARS-CoV Urbani / Binding of serum 6 to linear peptides of protein X4 of SARS-CoV Urbani / Binding of serum 37 to linear peptides of protein X4 of SARS-CoV Urbani / Binding of serum 37 to looped/cyclic peptides of protein X4 of SARS-CoV Urbani / Binding of serum 6 to linear peptides of protein X5 of SARS-CoV Urbani / Binding of serum 37 to linear peptides of protein X5 of SARS-CoV Urbani / Binding of serum 37 to looped/cyclic peptides of protein X5 of SARS-CoV Urbani / Binding of serum 6 to linear peptides of protein N of SARS-CoV Urbani / Binding of serum 37 to linear peptides of protein N of SARS-CoV Urbani / Binding of serum 6 to linear peptide (PEPSCAN-ELISA) / Binding of serum 1a to looped/cyclic peptides of protein N of SARS-CoV Urbani / Binding of serum 1b to looped/cyclic peptides of protein N of SARS-CoV Urbani / Binding of serum 2 to looped/cyclic peptides of protein N of SARS-CoV Urbani / Binding of serum 6 to looped/cyclic peptides of protein N of SARS-CoV Urbani / Binding of serum 37 to looped/cyclic peptides of protein N of SARS-CoV Urbani / Binding of serum 62 to looped/cyclic peptides of protein N of SARS-CoV Urbani / Binding of serum London to looped/cyclic peptides of protein N of SARS-CoV Urbani / Binding of serum SARS-green to looped/cyclic peptides of protein N of SARS-CoV Urbani: unit not given here
[3] = test system: recombinant human anti-SARS-CoV antibody 03-018; assay type: binding; set-up: Binding of antibody 03-018 to linear peptides of the N protein of SARS-CoV Urbani / Binding of antibody 03-018 to looped/cyclic peptides of the N protein of SARS-CoV Urbani: unit not given here
[4] = test system: rabbit serum obtained by immunizing a rabbit with the SARS-CoV strain Frankfurt 1; assay type: binding; set-up: Binding of a rabbit serum to linear peptides / Binding of a rabbit serum to looped peptides / Rabbit serum linear peptides / Rabbit serum looped peptides / Binding of a rabbit serum to linear peptides of protein N of SARS-CoV Urbani (Rabbit serum linear peptides) / Binding of a rabbit serum to looped/cyclic peptides of protein N of SARS-CoV Urbani (Rabbit serum looped peptides): unit not given here

Sequence | Binding of serum 1a to linear peptides of protein N of SARS-CoV Urbani [2] | Binding of serum 1a to looped/cyclic peptides of protein N of SARS-CoV Urbani [2] | Binding of serum 1b to linear peptides of protein N of SARS-CoV Urbani [2] | Binding of serum 1b to looped/cyclic peptides of protein N of SARS-CoV Urbani [2] | Binding of serum 2 to linear peptides of protein N of SARS-CoV Urbani [2] | Binding of serum 2 to looped/cyclic peptides of protein N of SARS-CoV Urbani [2] | Binding of serum 6 to linear peptides of protein N of SARS-CoV Urbani [2] | Binding of serum 6 to looped/cyclic peptides of protein N of SARS-CoV Urbani [2] | Binding of serum 37 to linear peptides of protein N of SARS-CoV Urbani [2] | Binding of serum 37 to looped/cyclic peptides of protein N of SARS-CoV Urbani [2] | Binding of serum 62 to linear peptides of protein N of SARS-CoV Urbani [2] | Binding of serum 62 to looped/cyclic peptides of protein N of SARS-CoV Urbani [2] | Binding of serum London to linear peptides of protein N of SARS-CoV Urbani [2] | Binding of serum London to looped/cyclic peptides of protein N of SARS-CoV Urbani [2] | Binding of serum SARS-green to linear peptides of protein N of SARS-CoV Urbani [2] | Binding of serum SARS-green to looped/cyclic peptides of protein N of SARS-CoV Urbani [2] | Binding of serum SARS-yellow to linear peptides of protein N of SARS-CoV Urbani [2] | Binding of serum SARS-yellow to looped/cyclic peptides of protein N of SARS-CoV Urbani [2] | Binding of antibody 03-018 to linear peptides of the N protein of SARS-CoV Urbani [3] | Binding of antibody 03-018 to looped/cyclic peptides of the N protein of SARS-CoV Urbani [3] | other results
TDSTDNNQNGGRNGA | 0.3 | 0.4 | 0.2 | 0.3 | 0.2 | 0.6 | 0.3 | 0.3 | 1.0 | 0.7 | 0.8 | 0.3 | 0.6 | 0.6 | 1.0 | 0.8 | 0.7 | 0.7 | 0.2 | 0.2 | Binding of Control Serum Blood-Bank to Looped peptides [1]: 0.7; Binding of Control serum Blood-bank to linear peptides [1]: 1.1; Binding of Control serum LUMC to linear peptides [1]: 0.8; Binding of Control serum LUMC to looped peptides [1]: 0.8; Binding of a rabbit serum to linear peptides of protein N of SARS-CoV Urbani (Rabbit serum linear peptides) [4]: 0.1; Binding of a rabbit serum to looped/cyclic peptides of protein N of SARS-CoV Urbani (Rabbit serum looped peptides) [4]: 0.2
TEGALNTPKDHIGTR | 0.2 | 0.3 | 0.1 | 0.2 | 0.2 | 0.5 | 0.2 | 0.4 | 0.7 | 0.5 | 0.7 | 0.6 | 0.5 | 0.4 | 0.6 | 0.6 | 0.6 | 0.4 | 0.2 | 0.3 | Binding of Control Serum Blood-Bank to Looped peptides [1]: 0.7; Binding of Control serum Blood-bank to linear peptides [1]: 1.0; Binding of Control serum LUMC to linear peptides [1]: 0.9; Binding of Control serum LUMC to looped peptides [1]: 0.7; Binding of a rabbit serum to linear peptides of protein N of SARS-CoV Urbani (Rabbit serum linear peptides) [4]: 0.2; Binding of a rabbit serum to looped/cyclic peptides of protein N of SARS-CoV Urbani (Rabbit serum looped peptides) [4]: 0.0
TEPKKDKKKKTDEAQ | 0.2 | 0.2 | 0.1 | 0.1 | 2.5 | 1.9 | 0.2 | 0.1 | 0.7 | 0.4 | 0.7 | 0.3 | 0.6 | 0.3 | 0.5 | 0.0 | 0.6 | 0.2 | 0.1 | 0.2 | Control Serum Blood-Bank Looped peptides [1]: 0.5; Control serum Blood-bank linear peptides [1]: 0.7; Control serum LUMC linear peptides [1]: 0.8; Control serum LUMC looped peptides [1]: 0.4; Binding of a rabbit serum to linear peptides of protein N of SARS-CoV Urbani (Rabbit serum linear peptides) [4]: 0.2; Binding of a rabbit serum to looped/cyclic peptides of protein N of SARS-CoV Urbani (Rabbit serum looped peptides) [4]: 0.3
TGPEASLPYGANKEG | 0.3 | 0.3 | 0.2 | 0.2 | 0.3 | 0.5 | 0.3 | 0.4 | 0.7 | 0.6 | 0.9 | 0.5 | 0.7 | 0.6 | 0.8 | 0.7 | 0.6 | 0.4 | 0.1 | 0.2 | Binding of Control Serum Blood-Bank to Looped peptides [1]: 0.8; Binding of Control serum Blood-bank to linear peptides [1]: 0.9; Binding of Control serum LUMC to linear peptides [1]: 1.1; Binding of Control serum LUMC to looped peptides [1]: 0.6; Binding of a rabbit serum to linear peptides of protein N of SARS-CoV Urbani (Rabbit serum linear peptides) [4]: 0.1; Binding of a rabbit serum to looped/cyclic peptides of protein N of SARS-CoV Urbani (Rabbit serum looped peptides) [4]: 0.5
